The record followed here is patent US11351151B2, “Compound having anticancer activity and preparation method and application” (3D Medicines (Beijing) Co., Ltd., priority 2016, dated 2022).

Common to all, as to assay: Cell proliferation assay (Alamar Blue)
What all share (format): cell-based

For one assay, the system named is MDA-MB-231. To be noted: Homo sapiens, 144 h; MDA-MB-231 tumor cell line; 6 days. How it is done: (§1) 1. Instruments and Materials • Thermo 311 CO2 incubator; Haier biosafety cabinet; Molecular Devices microplate reader; Xiangyi brand L530 desktop low speed centrifuge; Olympus IX51 inverted fluorescence microscope, DMEM, RPMI 1640, MEM, DMEM/F12 1:1 medium, Fetal bovine serum, 0.25% trypsin solution, phosphate buffer (Thermo Fisher Shanghai Co., Ltd.); sigma dimethyl sulfoxide (DMSO), resazurin; 54 commercial tumor cell lines (including 26 liver cancer cell lines). Experimental drugs: compounds 1-12 and active drug Linifanib; chemotherapeutic drug Doxorubicin (HY-15142; Shanghai Qianyuan Biomedical Technology Co., Ltd.).
(§2) 2. Experimental Methods • 2.1 Cultivation of different cell lines • 54 cell lines were cultured in a culture medium containing fetal bovine serum and placed in a 5% CO 2 incubator at 37° C. for incubation. The cells were all grown in an adherent state, and the growth was observed under an inverted microscope, and subculture was performed when the cell confluence rate reached 80%-90%. The proportion and quantity of passage were determined by experimental needs. The ratio of subculture of this cell line was generally 1:2^˜1:3. • 2.2 inhibition effect on the proliferation of different tumor cell lines • Cell test: 54 cell lines in logarithmic growth phase were inoculated in 96-well culture plates at 500^˜1×10^4/well (the optimal seeding density of each cell line was determined in pre-experiment), After incubating at 37° C. for 4 h in a 5% CO2 humidification incubator, added 10 μL of compounds 1-12 or Linifanib to each well, and tested 9 drug concentration gradients for each compound (diluted from the highest concentration of the test by 3.16 times). The solubility of each compound was different at a starting concentration of 30 or 100 μM, respectively. The QC reference compound Doxorubicin was added simultaneously to each cell line test, and the final drug concentrations were 10, 3.16, 1, 0.31, 0.1, 0.03, 0.01, 0.003, and 0.001 μM, respectively. In addition, a positive control group (100% inhibition) and a negative control group (0% inhibition) were set at the same time. The drug group was repeated for 2 wells per concentration, and the positive control group and the negative control group were repeated for 6 wells. After the culture was continued for 6 days in the incubator, AlamarBlue test operation was followed; • AlamarBlue test procedure: Incubated with 10 μL of AlamarBlue reagent per well for 1-4 h, shook for 1-2 min, MD microplate reader EX: 560 nm, EM: 590 nm wavelength to measure fluorescence, recorded the results, calculated the cell inhibition rate of the compound of the invention. Cell inhibition rate (%)=(A0% inhibition−A administration)/(A0% inhibition−A100% inhibition)×100%, and then using the method of nonlinear regression using Graph Pad Prism 5.0 or MATILAB software (usually using four parameters) to graph and obtain a drug dose response curve to obtain an IC50 value of the compound of the present invention acting on a cancer cell line.

For another assay, the system named is DU145. To be noted: Homo sapiens, DU-145, 144 h; DU145 tumor cell line; 6 days. How it is done: as §1, §2
For the next assay, the system named is Hep3B2.1-7. To be noted: 144 h; Hep3B2.1-7 liver cancer cell line; 6 days. The procedure: as §1, §2
A further assay deals with MG63. The conditions noted are these: Homo sapiens, MG-63, 144 h; MG63 tumor cell line; 6 days. How it is done: as §1, §2
The next assay concerns NCl-H1703. To be noted: 144 h; NCl-H1703 (lung cancer cells); 6 days. How it is done: as §1, §2
Another assay has as its system HEPG2. To be noted: Homo sapiens, 144 h; HEPG2 liver cancer cell line; 6 days. How it is done: as §1, §2
The subject of a further assay is SNU182. To be noted: Homo sapiens, SNU-182, 144 h; SNU182 liver cancer cell line; 6 days. The procedure: as §1, §2
In a further assay the test system is TE-6. To be noted: Homo sapiens, 144 h; TE-6 tumor cell line; 6 days. The procedure: as §1, §2
For the next assay, the system named is HuTu80. The conditions noted are these: Homo sapiens, 144 h; HuTu80 tumor cell line; 6 days. How it is done: as §1, §2
The next assay concerns JHH2. To be noted: JHH-2, 144 h; JHH2 liver cancer cell line; 6 days. The procedure:
as §1, §2

A further assay relates to DLD1. To be noted: Homo sapiens, DLD-1, 144 h; DLD1 tumor cell line; 6 days. The procedure: as §1, §2
A further assay has as its system SNU761. The conditions noted are these: 144 h; SNU761 liver cancer cell line; 6 days. How it is done:
as §1, §2

In a further assay the test system is HT1080. The conditions noted are these: Homo sapiens, HT-1080, 144 h; HT1080 tumor cell line; 6 days. How it is done: as §1, §2
A further assay relates to HCCLM3. The conditions noted are these: Homo sapiens, 144 h; HCCLM3 tumor cell line; 6 days. The procedure: as §1, §2
A further assay concerns HUH6. To be noted: Homo sapiens, HuH-6, 144 h; HUH6 liver cancer cell line; 6 days. How it is done:
as §1, §2

The next assay concerns CCRF-CEM. To be noted: Homo sapiens, 144 h; CCRF-CEM tumor cell line; 6 days. The procedure: as §1, §2
The next assay relates to NCl-H1648. To be noted: 144 h; NCl-H1648 tumor cell line; 6 days. How it is done: as §1, §2
Another assay deals with SNU739. To be noted: SNU-739, 144 h; SNU739 liver cancer cell line; 6 days. The procedure: as §1, §2
The test system of a further assay is AN3CA. The conditions noted are these: Homo sapiens, AN3-CA, 144 h; AN3CA (endometrial cells); 6 days. The procedure:
as §1, §2

The next assay relates to LNCAP-clone-FGC. To be noted: Homo sapiens, 144 h; LNCAP-clone-FGC tumor cell line; 6 days. The procedure: as §1, §2
The test system of the next assay is SNU398. To be noted: Homo sapiens, SNU-398, 144 h; SNU398 liver cancer cell line; 6 days. The procedure:
as §1, §2

A further assay has as its system Li-7. To be noted: 144 h; Li-7 liver cancer cell line; 6 days. How it is done:
as §1, §2

For the next assay, the system named is SK-HEP-1. The conditions noted are these: Homo sapiens, SK-HEP1, 144 h; SK-HEP-1 liver cancer cell line; 6 days. The procedure: as §1, §2

For the molecule `Cc1ccc(F)c(NC(=O)Nc2ccc(-c3cccc4c3c(N)nn4C(=O)CCCCCCCCCCCNC(=O)C[C@H](N)C(=O)N[C@@H](CCC(=O)N[C@@H](CCC(=O)N[C@@H](CCC(=O)N[C@@H](CCC(=O)N[C@@H](CCC(=O)N[C@@H](CCC(=O)N[C@@H](CCC(=O)N[C@@H](CCC(=O)N[C@@H](CCC(=O)O)C(=O)O)C(=O)O)C(=O)O)C(=O)O)C(=O)O)C(=O)O)C(=O)O)C(=O)O)C(=O)O)cc2)c1` [Compound 9], the 50% inhibitory concentration (IC50) in the assay on MDA-MB-231 is 81.1 µM; in the assay on DU145, 34.5 µM; in the assay on Hep3B2.1-7 it was 52.8 µM; in the assay on MG63, over 100 µM; in the assay with NCl-H1703, 330 nM; in the assay on HEPG2 it was 11 µM. The IC50 in the assay on SNU182 is over 100 µM; in the assay on TE-6, over 100 µM; with HuTu80, 73.5 µM; in the assay with JHH2, over 100 µM; with DLD1, over 100 µM; in the assay on SNU761, over 100 µM. In addition, the IC50 with HT1080 is over 100 µM; in the assay with HCCLM3, over 100 µM; in the assay on HUH6, 50.3 µM; with CCRF-CEM it was 30.2 µM; in the assay on NCl-H1648, over 100 µM; in the assay with SNU739, over 100 µM. The IC50 is 8.42 µM with AN3CA; over 100 µM with LNCAP-clone-FGC; 82.7 µM with SNU398; 49.3 µM with Li-7; over 100 µM in the assay on SK-HEP-1.

As for `Cc1ccc(F)c(NC(=O)Nc2ccc(-c3cccc4c3c(N)nn4C(=O)CCCCCNC(=O)C[C@H](N)C(=O)N[C@@H](CCC(=O)N[C@@H](CCC(=O)N[C@@H](CCC(=O)N[C@@H](CCC(=O)N[C@@H](CCC(=O)N[C@@H](CCC(=O)N[C@@H](CCC(=O)N[C@@H](CCC(=O)N[C@@H](CCC(=O)O)C(=O)O)C(=O)O)C(=O)O)C(=O)O)C(=O)O)C(=O)O)C(=O)O)C(=O)O)C(=O)O)cc2)c1` [Compound 6], the IC50 in the assay on MDA-MB-231 was over 100 µM; in the assay with DU145, 63.3 µM; in the assay on Hep3B2.1-7, 95.6 µM; with MG63, over 100 µM; in the assay with NCl-H1703, 7160 nM; in the assay with HEPG2, 43.4 µM. Further, the IC50 with SNU182 is over 100 µM; in the assay with TE-6, over 100 µM; with HuTu80, 61 µM; in the assay on JHH2 it was over 100 µM; in the assay on DLD1 it was over 100 µM; in the assay with SNU761 it was over 100 µM. The IC50 in the assay on HT1080 is over 100 µM; with HCCLM3 it was over 100 µM; with HUH6, 88.7 µM; in the assay on CCRF-CEM, 90.5 µM; in the assay on NCl-H1648, over 100 µM; in the assay with SNU739, over 100 µM. Moreover, the IC50 was 55.4 µM in the assay with AN3CA; over 100 µM in the assay on LNCAP-clone-FGC; over 100 µM with SNU398; 82 µM in the assay on Li-7; over 100 µM in the assay with SK-HEP-1.

For the molecule `Cc1ccc(F)c(NC(=O)Nc2ccc(-c3cccc4c3c(N)nn4C(=O)C[C@H](N)C(=O)N[C@@H](CCC(=O)O)C(=O)O)cc2)c1` [Compound 1], the IC50 was found to be 3.95 µM in the assay with MDA-MB-231; 2.76 µM in the assay on DU145; 1.59 µM with Hep3B2.1-7; 7.69 µM in the assay with MG63; 40 nM in the assay on NCl-H1703; 0.45 µM with HEPG2. The IC50 with SNU182 was 19.9 µM; with TE-6, 4.29 µM; in the assay on HuTu80, 3.17 µM; in the assay with JHH2 it was 28.9 µM; with DLD1, 9.86 µM; in the assay on SNU761, 9.53 µM. For the same molecule, the IC50 with HT1080 worked out at 13.2 µM; in the assay on HCCLM3, 11.4 µM; with HUH6 it was 0.13 µM; in the assay with CCRF-CEM it was 2.5 µM; in the assay with NCl-H1648, 6.89 µM; in the assay with SNU739, 4.56 µM. The IC50 was found to be 0.31 µM with AN3CA; 5.47 µM in the assay on LNCAP-clone-FGC; 2.61 µM in the assay with SNU398; 5.35 µM in the assay with Li-7; 4.59 µM with SK-HEP-1.

Take `Cc1ccc(F)c(NC(=O)Nc2ccc(-c3cccc4c3c(N)nn4C(=O)C[C@H](N)C(=O)O)cc2)c1` [Compound 10]: the IC50 was found to be 3.17 µM in the assay on MDA-MB-231; 1.34 µM in the assay on DU145; 1.23 µM in the assay on Hep3B2.1-7; 4.37 µM in the assay on MG63; 21 nM with NCl-H1703; 0.37 µM in the assay on HEPG2. Besides, the IC50 with SNU182 is 13.3 µM; in the assay on TE-6, 4.11 µM; in the assay on HuTu80, 2.63 µM; in the assay with JHH2, 25.1 µM; with DLD1 it was 7.53 µM; in the assay on SNU761, 9.04 µM. The IC50 was 8.82 µM in the assay on HT1080; 8.97 µM with HCCLM3; 0.15 µM with HUH6; 1.74 µM in the assay on CCRF-CEM; 6.06 µM in the assay with NCl-H1648; 3.87 µM in the assay with SNU739. In addition, the IC50 in the assay with AN3CA stood at 0.24 µM; with LNCAP-clone-FGC, 5.13 µM; in the assay with SNU398 it was 2.99 µM; with Li-7, 4.38 µM; in the assay on SK-HEP-1, 2.75 µM.

For `Cc1ccc(F)c(NC(=O)Nc2ccc(-c3cccc4c3c(N)nn4C(=O)CCCCCNC(=O)C[C@H](N)C(=O)N[C@@H](CCC(=O)O)C(=O)O)cc2)c1` [Compound 4], the IC50 turned out to be 96.5 µM with MDA-MB-231; 38 µM in the assay with DU145; 69.8 µM in the assay with Hep3B2.1-7; 94.5 µM with MG63; 1590 nM in the assay on NCl-H1703; 19 µM in the assay on HEPG2. The IC50 in the assay with SNU182 was over 100 µM; in the assay with TE-6, over 100 µM; in the assay with HuTu80 it was 38.2 µM; in the assay with JHH2 it was over 100 µM; in the assay with DLD1 it was over 100 µM; in the assay with SNU761 it was 85 µM. In addition, the IC50 is over 100 µM with HT1080; 82 µM in the assay with HCCLM3; 53.8 µM with HUH6; 51.7 µM with CCRF-CEM; over 100 µM in the assay with NCl-H1648; 73.8 µM with SNU739. For the same molecule, the half-inhibitory concentration (IC50) was found to be 28.7 µM in the assay with AN3CA; 75.3 µM with LNCAP-clone-FGC; 96.5 µM in the assay with SNU398; 47.2 µM in the assay on Li-7; 64 µM in the assay with SK-HEP-1.
